Series [1] deals with Aspergillus niger ATCC 16404. Put plainly: Disc-diffusion antifungal assay. Type of series: cell-based. The following applies: 40 µg/disc; A. niger ATCC 16404. (In general: In agar diffusion tests the substance spreads into inoculated agar from a disc or well.)
For series [2], the system named is A. fumigatus VKM F-37. Briefly: Disc-diffusion antifungal assay. To be noted: 40 µg/disc. Type of series: cell-based, Aspergillus fumigatus.
Series [3] deals with A. fumigatus 390 m. Put plainly: Disc-diffusion antifungal assay. To be noted: 40 µg/disc, pathogenic clinical isolate. Type of series: cell-based, Aspergillus fumigatus.
The test system of series [4] is clinical isolates of Candida. Briefly: Disc-diffusion antifungal assay, clinical yeast isolates. The following applies: range over clinical isolates of Candida (Figure S2). Type of series: cell-based.
The subject of series [5] is reference and clinical strains of Aspergillus. Briefly: Disc-diffusion antifungal assay, Aspergillus strains. It counts as cell-based. To be noted: range over clinical isolates of Aspergillus (Figure S2).
Series [6] deals with A. niger ATCC 16404. Put plainly: Broth two-fold microdilution MIC (CLSI). It counts as cell-based, Aspergillus niger. The following applies: A. niger ATCC 16404; RPMI 1640 pH 7.0, 35 °C, 48 h, no visible growth. On the technique in general: Dilution methods test growth across graded concentrations, often in twofold steps.
Series [7] deals with A. fumigatus VKM F-37. Briefly: Broth two-fold microdilution MIC (CLSI). It counts as cell-based, Aspergillus fumigatus. To be noted: A. fumigatus VKM F-37; RPMI 1640 pH 7.0, 35 °C, 48 h.
Series [8] concerns A. fumigatus 390 m. Put plainly: Broth two-fold microdilution MIC (CLSI). The following applies: A. fumigatus 390 m clinical isolate; RPMI 1640 pH 7.0, 35 °C, 48 h. It counts as cell-based, Aspergillus fumigatus.
Series [9] concerns Candida albicans 1402. Briefly: Broth microdilution MIC and MFC (CLSI). Type of series: cell-based.
For series [10], the system named is C. parapsilosis 571. Put plainly: Broth microdilution MIC and MFC (CLSI). Type of series: cell-based.
Series [11] deals with clinical yeast isolates (Candida, Cryptococcus). Briefly: Broth microdilution MIC/MFC, pathogenic multidrug yeast strains. To be noted: isolates of C. albicans, C. glabrata and C. neoformans. Type of series: cell-based.
Series [12] concerns B16 (mouse melanoma cell line). Briefly: MTT cytotoxicity assay. Type of series: cell-based. To be noted: 72 h, three experiments, each in triplicate. As to the method: (§1) Experiments for determining the cytotoxic activity of the compound in MTT assays were performed as previously described. The following tumor cell lines were used for this study: HCT-116 (colon cancer cell line), B16 (mouse melanoma cell line), K-562 (leukemia cell line), MDA-MB-231 (breast cancer line), and MCF-7 (breast cancer cell). Human postnatal fibroblasts were used as a normal cell line, and doxorubicin was used as a positive control. The cell lines were cultured in Dulbecco modified Eagle’s medium supplemented with 5% fetal calf serum, 2 mM Lglutamine, 100 U/mL penicillin, and […] streptomycin at 37 °C, 5% CO2 in a humidified atmosphere. Experiments were carried out on cells in the logarithmic phase of growth. The peptide was dissolved in DMSO as a 10 mM stock solution, followed by serial dilutions in water immediately before the experiment. Briefly, cells (5 × 10^3 in […] of culture medium) were plated in a 96-well plate and treated with 0.1% DMSO (blank control) or with […] of the peptide (0.10‒50 μM; each concentration in duplicate) for 72 h. After incubation with peptide, […] of aqueous MTT solution (3-(4,5-dimethylthiazol-2-yl)-2,5-diphenyltetrazolium bromide, 5 mg/mL) were added into each well for 2‒3 h. Formazan was dissolved in DMSO, and the absorbance at 570 nm was measured. The cytotoxicity at a given EmiA concentration was calculated as the percentage of absorbance in wells with peptide-treated cells compared to that of blank control cells (100%). The IC50 (50% growth inhibitory concentration) was defined as the concentration of EmiA that inhibited MTT conversion by 50%. All the experiments were repeated three times, each time in triplicate. EmiA was tested at a range of concentrations, 0.1‒10 μM.
In general terms: Tetrazolium dyes change colour on reduction, which living cells bring about.

The test system of series [13] is HCT-116 (colon cancer cell line). Briefly: MTT cytotoxicity assay. Type of series: cell-based. To be noted: 72 h, three experiments, each in triplicate. On the procedure: as §1
Series [14] concerns HPF (human postnatal fibroblasts, normal cell line). Briefly: MTT cytotoxicity assay. It counts as cell-based. On the procedure: as §1
Series [15] relates to MCF-7 (breast cancer cell). Put plainly: MTT cytotoxicity assay. Type of series: cell-based. The following applies: 72 h, three experiments, each in triplicate. As to the method:
as §1

In series [16] the test system is MDA-MB-231 (breast cancer line). Put plainly: MTT cytotoxicity assay. It counts as cell-based. To be noted: 72 h, three experiments, each in triplicate. As to the method:
as §1

The subject of series [17] is human erythrocytes. Put plainly: Hemolytic activity. It counts as cell-based. To be noted: for hemolytic activity (in words): concentrations of 0–20 μM. On the procedure: Erythrocytes were isolated from the peripheral blood of healthy donors after incubation at 4 °C for 2–3 h. All the donors are males, 35–38 years old. All of them have approved to collect blood samples, and the authors have permissions filled. All the blood samples have been destroyed after the experiments finished. The red blood cell suspension (100 μL) was pelleted, washed twice with saline, then the pellet was resuspended in 500 μL saline or distilled water (positive control of hemolysis). The compounds were added (final concentration of 20 μM). The samples were incubated for 1 h at 37 °C and centrifuged at 2000 rpm for 1.5 min. The OD of supernatants was measured on a Multiscan spectrophotometer FC (Thermo Scientific, Waltham, MA, USA) at a wavelength of 540 nm. The percent hemolysis was calculated relative to the positive control, taken as 100%.
Erythrocytes were isolated from the human blood: On the day of the study, blood was taken from the donor’s cubital vein into a test tube with an anticoagulant. The blood was incubated at 4 °C for 2‒3 h. A suspension of erythrocytes (100 μL) was diluted with a physiological buffer (pH 7.2) to a total volume of 500 μL. Solutions of the test substances with an initial concentration of […] (DMSO) were diluted with a PBS buffer (1:10). The resulting solutions were introduced into Eppendorf tubes in the amounts required to create the studied concentration (5, 10, or 20 μM). A mixture of PBS with erythrocytes was added to a total volume of 200 μL. The control (C) was a mixture of erythrocytes with H2O (100% of hemolysis). The intact control solution (I) was a mixture of erythrocytes with the PBS and solvent (DMSO). The antibiotic gramicidin S (Gram S) was used as a control sample with active hemolysis. The mixture was incubated for 1 h at 37 °C. The measurement of the optical density of the supernatants was carried out on a BioTek ELx800 automatic microplate photometer (USA) at 570 nm. The optical density of the liquid above the sediment in the control sample with H2O was taken as 100%.

Take “Methyldecanoyl-MePro-AHMOD-Ala-Aib-Ile-Iva-βAla-Alaol-Glyol [EmiA, emericellipsin A, nonribosomal lipopeptaibol, major compound of E. alkalina VKPM F1428]”: the “Zone of Inhibition” value in series [1] was found to be 25 ± 0.21 mm; in [2] it was 20 ± 0.3 mm; in [3], 20 ± 0.40 mm. Further, the values for the inhibition zones in [4] and in [5] were 20–25 mm and 15–19 mm, respectively. Moreover, the “Minimal Inhibitory Concentration (MIC)” value in series [6] is reported as 4 µg/mL; in series [7], 2 µg/mL; in series [8], 2 µg/mL. The MFC is given as 4 µg/mL in series [9] (Candida albicans 1402, lowest concentration causing 95% death, plated on PDA agar) and 1 µg/mL in [10] (C. parapsilosis 571, lowest concentration causing 95% death). In addition, the MIC (commonly the lowest concentration that inhibits growth of the organism) in series [9] (Candida albicans 1402 clinical isolate, RPMI 1640 pH 7.0, 35 °C, 24 h) was found to be 2 µg/mL; in series [10] (C. parapsilosis 571 clinical isolate, RPMI 1640 pH 7.0, 35 °C, 24 h) it was 1 µg/mL. The MIC/MFCs range in series [11] is 0.25 to 4 µg/mL. Also, the IC50 (in general, the concentration that gives 50% inhibition) was found to be 16 ± 2.08 µM in series [12]; 2.3 ± 0.3 µM in [13]; 11.5 ± 1.5 µM in series [14] (HPF normal fibroblasts, MTT, 72 h, three experiments, each in triplicate); 11 ± 1.2 µM in series [15]; 8 ± 1.04 µM in series [16]. The “antiproliferative activity inferior to doxorubicin” value in series [14] (interaction with PFH, relative to doxorubicin) is recorded as 60 times. The hemolysis result in [17] (20 μM, 1 h, 37 °C, relative to H2O control = 100%, OD 540 nm or 570 nm, triplicate, mean) is on record as “approximately 12.6%”. Further, the figures for the “hemolytic activity (in words)” value in [17] and in [17] (listed as Emericellipsin A) were “no hemolytic activity” and “negligible hemolytic activity”, respectively.

The values are drawn from PMC7924852, “The Emericellipsins A–E from an Alkalophilic Fungus Emericellopsis alkalina Show Potent Activity against Multidrug-Resistant Pathogenic Fungi” (Journal of Fungi, 2021).
